Reference: PubChem BioAssay AID1745844 (Carcinogenic Potency Database (CPDB), 2022)
Calls of active or inactive are those of the source. The rule behind the calls is not given here.

Tested on: rodent lifetime carcinogenesis bioassay, tumor incidence TD50
Assay: carcinogenic potency in animals, long-term in vivo studies, CPDB compilation (AID 1745844)
Conditions: for carcinogen call: lesion: one or several types, types not named

Structure (SMILES) | TD50 (mouse, strain B6C3F1, males, in drinking water, site: liver, lesion: hepatocellular adenoma, dosed 52 weeks, study length 52 weeks) | TD50 (rat, strain F344/DuCrj, males, in feed, site: urinary bladder, lesion: carcinoma, dosed 104 weeks, study length 104 weeks) | TD50 (rat, strain Wistar-random, females, in feed, site: urinary bladder, lesion: several types, types named in the paper, dosed 130 weeks, study length 130 weeks) [mg/kg/day] | TD50 (rat, strain Wistar-random, females, in feed, site: urinary bladder, lesion: transitional-cell carcinoma, dosed 130 weeks, study length 130 weeks) [mg/kg/day] | TD50 (rat, strain Wistar-random, females, in feed, site: urinary bladder, lesion: transitional-cell papilloma, dosed 78 weeks, study length 78 weeks) [mg/kg/day] | TD50 (rat, strain Wistar-random, females, in feed, site: urinary bladder, lesion: transitional-cell papilloma, dosed 130 weeks, study length 130 weeks) [mg/kg/day] | TD50 (rat, strain Wistar-random, males, in feed, site: urinary bladder, lesion: several types, types named in the paper, dosed 78 weeks, study length 78 weeks) [mg/kg/day] | TD50 (rat, strain Wistar-random, males, in feed, site: urinary bladder, lesion: several types, types named in the paper, dosed 121 weeks, study length 121 weeks) [mg/kg/day] | TD50 (rat, strain Wistar-random, males, in feed, site: urinary bladder, lesion: transitional-cell carcinoma, dosed 78 weeks, study length 78 weeks) [mg/kg/day] | TD50 (rat, strain Wistar-random, males, in feed, site: urinary bladder, lesion: transitional-cell carcinoma, dosed 121 weeks, study length 121 weeks) [mg/kg/day] | TD50 (rat, strain Wistar-random, males, in feed, site: urinary bladder, lesion: transitional-cell papilloma, dosed 78 weeks, study length 78 weeks) [mg/kg/day] | TD50 (rat, strain Wistar-random, males, in feed, site: urinary bladder, lesion: transitional-cell papilloma, dosed 121 weeks, study length 121 weeks) [mg/kg/day] | TD50 (mouse, strain Charles River CD1, females, in feed, site: liver, lesion: hepatocellular adenoma, dosed 92 weeks, study length 92 weeks) [mg/kg/day] | TD50 (mouse, strain Charles River CD1, females, in feed, site: liver, lesion: several types, types named in the paper, dosed 92 weeks, study length 92 weeks) [mg/kg/day] | TD50 (mouse, strain Charles River CD1, males, in feed, site: liver, lesion: hepatocellular adenoma, dosed 92 weeks, study length 92 weeks) [mg/kg/day] | TD50 (rat, strain Charles River CD (Sprague-Dawley), females, in feed, site: liver, lesion: hepatocellular adenoma, dosed 104 weeks, study length 104 weeks) [mg/kg/day] | carcinogen call (rat, strain Charles River CD (Sprague-Dawley), females, in feed, site: liver, dosed 52 weeks, study length 52 weeks) | carcinogen call (rat, strain Charles River CD (Sprague-Dawley), males, in feed, site: liver, dosed 52 weeks, study length 52 weeks) | TD50 (rat, strain Charles River CD (Sprague-Dawley), males, in feed, site: liver, lesion: several types, types named in the paper, dosed 104 weeks, study length 104 weeks) [mg/kg/day] | TD50 (rat, strain Charles River CD (Sprague-Dawley), males, in feed, site: testis, lesion: interstitial-cell tumor, dosed 104 weeks, study length 104 weeks) [mg/kg/day]
O=C(O)O | 1330 mg/kg/day (inactive) | 5350 mg/kg/day (inactive) | 12800 | 37100 | 8280 | 20700 | 6400 | 13200 | 12900 | 54400 | 13100 | 17800 | – | – | – | – | – | – | – | –
NC(=O)OCC(COC(N)=O)c1ccccc1 | – | – | – | – | – | – | – | – | – | – | – | – | 10400 | 10200 | 5770 | 934 | negative (inactive) | negative (inactive) | 9780 | 1310
